Measured values published in US6211214A, “Biphenyl ether oxazolines and their use as pest-control agents” (Bayer Aktiengesellschaft, priority 1995, dated 2001).

Assay: log p (partition coefficient octanol/water, determined experimentally from reversed phase HPLC)
Type: physicochemical
Conditions: for chromatographic logP: reversed phase hplc
Source text: [log p=logarithm of the partition coefficient p of the substance between the solvents octanol and water, determined experimentally from reversed phase HPLC]

Row | SMILES | chromatographic logP (A isomer) | chromatographic logP (B isomer) | chromatographic logP | also measured
1 | C=CCON=C(C)C(C)Oc1ccc(-c2ccc(C3COC(c4ccccc4Cl)=N3)cc2)cc1 (stereo not shown) [Example 143] | 5.45 | 5.57 | – | –
2 | CC(COc1ccc(-c2ccc(C3COC(c4c(F)cccc4Cl)=N3)cc2)cc1)=NOCc1ccccc1 (stereo not shown) [Example 126] | 5.45 | 5.53 | – | –
3 | CON=C(c1ccccc1F)C(C)Oc1ccc(-c2ccc(C3COC(c4c(F)cccc4F)=N3)cc2)cc1 (stereo not shown) [Example 108] | – | – | 5.01 | –
4 | CCON=C(C)C(C)(C)Oc1ccc(-c2ccc(C3COC(c4ccccc4Cl)=N3)cc2)cc1Cl (stereo not shown) [Example 176] | – | – | 6.49 | –
5 | CCON=C(COc1ccc(-c2ccc(C3COC(c4c(F)cccc4F)=N3)cc2)cc1)c1ccc(C(F)F)cc1 (stereo not shown) [Example 139] | 5.07 | 5.31 | – | –
6 | CC(=NO)C(C)(C)Oc1ccc(-c2ccc(C3COC(c4c(F)cccc4F)=N3)cc2)cc1 (stereo not shown) [Example 167] | 3.82 | 3.39 | – | –
7 | CCOC(=O)C(CC)Oc1ccc(-c2ccc(C3COC(c4c(F)cccc4F)=N3)cc2)cc1 (stereo not shown) [Example 11] | – | – | 4.53 | –
8 | CON=C(C)C(C)(C)Oc1ccc(-c2ccc(C3COC(c4c(F)cccc4Cl)=N3)cc2)cc1 (stereo not shown) [Example 160] | – | – | 5.45 | –
9 | C=CCON=C(C)COc1ccc(-c2ccc(C3COC(c4c(F)cccc4Cl)=N3)cc2)cc1 (stereo not shown) [Example 125] | 5.04 | 5.11 | – | –
10 | CCCCC(Oc1ccc(-c2ccc(C3COC(c4c(F)cccc4F)=N3)cc2)cc1)C(=O)OCC (stereo not shown) [Example 61] | – | – | 5.24 | –
11 | CCON=C(COc1ccc(-c2ccc(C3COC(c4c(F)cccc4F)=N3)cc2)cc1)c1ccc(C)c(C)c1 (stereo not shown) [Example 190] | 5.94 | 5.62 | – | –
12 | CON=C(COc1ccc(-c2ccc(C3COC(c4c(F)cccc4F)=N3)cc2)cc1)c1ccccc1 (stereo not shown) [Example 27] | 4.74 | – | – | –
13 | CCON=C(COc1ccc(-c2ccc(C3COC(c4c(F)cccc4F)=N3)cc2)cc1)c1ccc(C)cc1 (stereo not shown) [Example 134] | 5.42 | 5.71 | – | –
14 | CCON=C(COc1ccc(-c2ccc(C3COC(c4c(F)cccc4F)=N3)cc2)cc1)c1ccc(Cl)c(C)c1 (stereo not shown) [Example 141] | 5.93 | 6.23 | – | –
15 | CCON=C(COc1ccc(-c2ccc(C3COC(c4c(F)cccc4F)=N3)cc2)cc1)c1ccc(C(F)(F)F)cc1 (stereo not shown) [Example 112] | 5.87 | 5.57 | – | –
16 | CCOC(CCOc1ccc(-c2ccc(C3COC(c4c(F)cccc4F)=N3)cc2)cc1Cl)OCC (stereo not shown) [Example 97] | – | – | 5.12 | –
17 | CCON=C(COc1ccc(-c2ccc(C3COC(c4c(F)cccc4F)=N3)cc2)cc1)c1ccc(CC(C)C)cc1 (stereo not shown) [Example 155] | 6.7 | 6.36 | – | –
18 | CON=C(C)C(C)(C)Oc1ccc(-c2ccc(C3COC(c4ccccc4Cl)=N3)cc2)cc1Cl (stereo not shown) [Example 175] | – | – | 6.06 | –
19 | CON=C(c1cccc(C(F)(F)F)c1)C(C)Oc1ccc(-c2ccc(C3COC(c4c(F)cccc4F)=N3)cc2)cc1 (stereo not shown) [Example 106] | – | – | 5.5 | –
20 | CCON=C(C)C(C)Oc1ccc(-c2ccc(C3COC(c4c(F)cccc4Cl)=N3)cc2)cc1 (stereo not shown) [Example 62] | 5.31 | 5.42 | – | –

Row | SMILES | chromatographic logP (A isomer) | chromatographic logP (B isomer) | chromatographic logP | also measured
21 | CON=C(COc1ccc(-c2ccc(C3COC(c4c(F)cccc4F)=N3)cc2)cc1)c1ccc(CC(C)C)cc1 (stereo not shown) [Example 154] | 6.34 | 6.05 | – | –
22 | CON=C(COc1ccc(-c2ccc(C3COC(c4c(F)cccc4Cl)=N3)cc2)cc1)c1ccccc1 (stereo not shown) [Example 94] | – | – | 5.25 | –
23 | O=C(COc1ccc(-c2ccc(C3COC(c4ccccc4Cl)=N3)cc2)cc1)c1ccccc1 (stereo not shown) [Example 49] | – | – | 4.38 | –
24 | CCON=C(COc1ccc(-c2ccc(C3COC(c4c(F)cccc4F)=N3)cc2)cc1)C1CC1 (stereo not shown) [Example 67] | – | – | – | log p (A isomer): 4.72; log p (B isomer): 4.61
25 | C=CCON=C(C)C(C)Oc1ccc(-c2ccc(C3COC(c4c(F)cccc4F)=N3)cc2)cc1 (stereo not shown) [Example 88] | 5.04 | 5.13 | – | –
26 | CCON=C(C)C(C)(C)Oc1ccc(-c2ccc(C3COC(c4c(F)cccc4F)=N3)cc2)cc1Cl (stereo not shown) [Example 171] | – | – | 5.05 | –
27 | C=CCON=C(C)COc1ccc(-c2ccc(C3COC(c4ccccc4Cl)=N3)cc2)cc1 (stereo not shown) [Example 142] | 5.12 | 5.2 | – | –
28 | O=C(COc1ccc(-c2ccc(C3COC(c4c(F)cccc4F)=N3)cc2)cc1)c1cc(Cl)ccc1Cl (stereo not shown) [Example 132] | – | – | 4.78 | –
29 | CON=C(COc1ccc(-c2ccc(C3COC(c4c(F)cccc4F)=N3)cc2)cc1)c1ccc(OC(F)(F)C(F)F)cc1 (stereo not shown) [Example 157] | 5.28 | 5.04 | – | –
30 | CC(COc1ccc(-c2ccc(C3COC(c4c(F)cccc4F)=N3)cc2)cc1)=NOCc1ccccc1 (stereo not shown) [Example 82] | 5.15 | – | – | –
31 | CC(=NOC(C)C)C(C)Oc1ccc(-c2ccc(C3COC(c4c(F)cccc4F)=N3)cc2)cc1 (stereo not shown) [Example 69] | – | – | 4.47 | –
32 | CCON=C(COc1ccc(-c2ccc(C3COC(c4c(F)cccc4F)=N3)cc2)cc1)c1cccc(Cl)c1 (stereo not shown) [Example 116] | 5.89 | 5.54 | – | –
33 | CCON=C(COc1ccc(-c2ccc(C3COC(c4c(F)cccc4F)=N3)cc2)cc1)c1ccc(Cl)cc1 (stereo not shown) [Example 131] | 5.61 | 5.54 | – | –
34 | CCON=C(COc1ccc(-c2ccc(C3COC(c4c(F)cccc4F)=N3)cc2)cc1)c1ccc(OC(F)(F)C(F)F)cc1 (stereo not shown) [Example 158] | 5.59 | 5.35 | – | –
35 | C=CCON=C(C)C(C)Oc1ccc(-c2ccc(C3COC(c4c(F)cccc4Cl)=N3)cc2)cc1 (stereo not shown) [Example 120] | 5.7 | 5.81 | – | –
36 | CON=C(C)C(C)(C)Oc1ccc(-c2ccc(C3COC(c4c(F)cccc4F)=N3)cc2)cc1Cl (stereo not shown) [Example 170] | – | – | 5.61 | –
37 | Cc1ccc(C(=O)COc2ccc(-c3ccc(C4COC(c5c(F)cccc5F)=N4)cc3)cc2)cc1C (stereo not shown) [Example 148] | – | – | 4.62 | –
38 | CC(C)C(C#N)Oc1ccc(-c2ccc(C3COC(c4c(F)cccc4F)=N3)cc2)cc1Cl (stereo not shown) [Example 102] | – | – | 4.84 | –
39 | CCON=C(COc1ccc(-c2ccc(C3COC(c4c(F)cccc4F)=N3)cc2)cc1)c1cccc(C(F)(F)F)c1 (stereo not shown) [Example 122] | 6.18 | 5.87 | – | –
40 | CO/N=C(/COc1ccc(-c2ccc(C3COC(c4c(F)cccc4F)=N3)cc2)cc1)C1CC1 (stereo not shown) [Example 24] | – | – | – | chromatographic logP (E isomer): 4.9

Continued, in another order:

Row | chromatographic logP (A isomer) | chromatographic logP (B isomer) | chromatographic logP | SMILES | also measured
41 | – | – | 3.77 | CC1(COc2ccc(-c3ccc(C4COC(c5c(F)cccc5F)=N4)cc3)cc2)OCCO1 (stereo not shown) [Example 98] | –
42 | 4.79 | 4.7 | – | CON=C(C)COc1ccc(-c2ccc(C3COC(c4c(F)cccc4F)=N3)cc2)cc1Cl (stereo not shown) [Example 86] | –
43 | 5.1 | 5.17 | – | CC(COc1ccc(-c2ccc(C3COC(c4c(F)cccc4F)=N3)cc2)cc1)=NOC(C)C (stereo not shown) [Example 80] | –
44 | – | 4.76 | – | CCON=C(C)COc1ccc(-c2ccc(C3COC(c4c(F)cccc4F)=N3)cc2)cc1 (stereo not shown) [Example 25] | –
45 | – | – | 5.12 | CCON=C(C)C(C)Oc1ccc(-c2ccc(C3COC(c4c(F)cccc4F)=N3)cc2)cc1 (single isomer, unassigned) [Example 70] | –
46 | – | – | 4.12 | CCOC(=O)C(C)Oc1ccc(-c2ccc(C3COC(c4c(F)cccc4F)=N3)cc2)cc1 (stereo not shown) [Example 3, 2-(2,6-difluorophenyl)-4-[4'-(1-ethoxycarbonyl-eth-1-yl-oxy)-biphenyl-4-yl]-1,3-oxazoline] | –
47 | – | – | 4.18 | CCC(Oc1ccc(-c2ccc(C3COC(c4c(F)cccc4F)=N3)cc2)cc1)C(=O)OC (stereo not shown) [Example 19] | –
48 | 5.49 | 4.85 | – | CCON=C(COc1ccc(-c2ccc(C3COC(c4c(F)cccc4F)=N3)cc2)cc1)C1(Cl)CC1 (stereo not shown) [Example 57] | –
49 | – | – | 5.57 | CCON=C(C)C(C)(C)Oc1ccc(-c2ccc(C3COC(c4c(F)cccc4F)=N3)cc2)cc1 (stereo not shown) [Example 99] | –
50 | – | – | 4.04 | O=C(COc1ccc(-c2ccc(C3COC(c4c(F)cccc4F)=N3)cc2)cc1)C1(Cl)CC1 (stereo not shown) [Example 54] | –
51 | – | – | 3.07 | CON(C)C(=O)COc1ccc(-c2ccc(C3COC(c4c(F)cccc4F)=N3)cc2)cc1 (stereo not shown) [Example 34] | –
52 | 5.52 | 5.19 | – | CON=C(COc1ccc(-c2ccc(C3COC(c4c(F)cccc4F)=N3)cc2)cc1)c1cccc(Cl)c1 (stereo not shown) [Example 115] | –
53 | – | – | 5.14 | CON=C(C)C(C)(C)Oc1ccc(-c2ccc(C3COC(c4c(F)cccc4F)=N3)cc2)cc1 (stereo not shown) [Example 100] | –
54 | 5.8 | 4.49 | – | CON=C(COc1ccc(-c2ccc(C3COC(c4c(F)cccc4F)=N3)cc2)cc1)c1cccc(C(F)(F)F)c1 (stereo not shown) [Example 121] | –
55 | 5.27 | 5.54 | – | CON=C(COc1ccc(-c2ccc(C3COC(c4c(F)cccc4F)=N3)cc2)cc1)c1ccc(Cl)cc1 (stereo not shown) [Example 130] | –
56 | 5.57 | 5.88 | – | CON=C(COc1ccc(-c2ccc(C3COC(c4c(F)cccc4F)=N3)cc2)cc1)c1ccc(Cl)c(C)c1 (stereo not shown) [Example 140] | –
57 | – | – | 4.55 | CC(C)C(C)(C)C(=O)COc1ccc(-c2ccc(C3COC(c4c(F)cccc4F)=N3)cc2)cc1 (stereo not shown) [Example 68] | –
58 | – | – | 5.53 | CON=C(COc1ccc(-c2ccc(C3COC(c4c(F)cccc4F)=N3)cc2)cc1)c1ccc(C(F)(F)F)cc1 (stereo not shown) [Example 111] | –
59 | 5.28 | 4.92 | – | CCON=C(COc1ccc(-c2ccc(C3COC(c4c(F)cccc4F)=N3)cc2)cc1)C1CC1 (stereo not shown) [Example 56] | –
60 | 4.62 | 4.71 | – | CON=C(C)C(C)Oc1ccc(-c2ccc(C3COC(c4c(F)cccc4F)=N3)cc2)cc1 (stereo not shown) [Example 23] | –
61 | 4.98 | 4.9 | – | CCON=C(CC)COc1ccc(-c2ccc(C3COC(c4c(F)cccc4F)=N3)cc2)cc1 (stereo not shown) [Example 66] | –
62 | 5.02 | 5.13 | – | CCON=C(C)C(C)Oc1ccc(-c2ccc(C3COC(c4c(F)cccc4F)=N3)cc2)cc1 (stereo not shown) [Example 48] | –
